Assay results reported in paper doi:10.1101/2025.02.17.638454, “Synergistic RAS-MAPK and AKT Activation in MYC-Driven Tumors via Adjacent PVT1 Rearrangements” (bioRxiv, 2025).
No end group written: not given here.

What was measured:
recombinant KRAS protein = molecular target: T1, recombinant KRAS protein (Homo sapiens, UniProt P01116); experiment: Isothermal titration calorimetry of HNB into recombinant KRAS; assay type: binding; settings: ITC, pH 8.0, 25°C, N 1 (fixed)
T1 construct: purchased Abcam ab156968
T1 sequence (P01116 1-188 isoform P01116-2): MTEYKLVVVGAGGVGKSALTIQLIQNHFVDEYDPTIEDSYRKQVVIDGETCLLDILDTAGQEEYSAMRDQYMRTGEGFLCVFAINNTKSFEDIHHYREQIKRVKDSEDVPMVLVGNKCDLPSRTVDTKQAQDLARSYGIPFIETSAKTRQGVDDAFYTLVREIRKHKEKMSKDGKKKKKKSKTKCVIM
Description: Isothermal titration calorimetry (ITC) measures the change in temperature when two or more biomolecules bind to each other in a solution. The assay provides the binding affinity of ligands to proteins and the entropy or enthalpy of the reaction. Recombinant KRAS protein (#ab156968, Abcam) was dialyzed into the ITC assay buffer (20mM Tris pH 8.0, 100mM NaCl, 5mM Beta-mercaptoethanol) and concentrated to about 100 μM. During ITC titration twenty 6 μl injections (with intervals of 150 seconds) of 500μM HNB were made into the ITC cell containing 93 μM KRAS. Titration of 500μM HNB into the ITC assay buffer under the same conditions was used as the baseline control. ITC experiments were performed using Affinity ITC instrument (TA Instruments) at 25°C. The data was fitted and analyzed using NanoAnalyze software provided by TA Instruments. […]
bioRxiv preprint doi: https://doi.org/10.1101/2025.02.17.638454; this version posted February 22, 2025. The copyright holder for this preprint (which was not certified by peer review) is the author/funder, who has granted bioRxiv a license to display the preprint in perpetuity. It is made available under aCC-BY 4.0 International license. […]

MYC = experiment: q-RT-PCR of MYC transcript in COLO-320DM; assay type: cell-based, human; settings: COLO320DM, induction of HNB (-/+ Dox); n=3, unpaired t-test, 0.0011
Description: Total RNA was extracted with the TRIzol (Roche, Indianapolis, IN) as described by the manufacturer and complementary DNA synthesis, 1 μg of total RNA was reverse transcribed by using the GoScriptTM Reverse Transcription Mix, Random Primer Protocol (Promega, Madison, WI). Real-time PCR was run in triplicate using PowerUpTM SYBRTM Green Master Mix (Thermo Fisher Scientific), following the manufacturer’s instructions. Real-time PCR amplification monitoring was performed using the CFX96 Touch Real-Time PCR Detection System (Bio-Rad). Data were expressed as relative mRNA levels normalized to the GAPDH, served as endogenous normalization control expression levels in each sample, and are represented as mean ± standard error of the mean between 2 independent experiments unless otherwise indicated in the figure legend. The primer sequences are listed in the Supplementary Table.
The HNB ORF and eGFP (control) were cloned in an inducible lentivirus expression, TRE-gateway plasmid (pLIX_403, Addgene, #41395). Lentivirus was produced in HEK293T cells using the protocol described above. […] The protein lysates were collected and quantified using the previously described protocol. […] Bound proteins were detected with horseradish-peroxidase–conjugated secondary antibodies (Cell Signaling Technologies) and SuperSignal West Femto (Thermo Fisher Scientific). […]

FFX = experiment: Western blot of FFX in D458; assay type: cell-based, human; settings: D458, siRNA vs si.Ctrl, anti-FFX antibody
Description: For whole-cell lysate, the cell pellet was resuspended in RIPA buffer (Cell Signaling Technologies, Danvers, MA) supplemented with a protease inhibitor cocktail (Cell Signaling Technologies) and incubated on ice for 20 minutes. The lysate was then centrifuged at 14,000 revolutions/minute for 10 minutes at 4°C, and the supernatant was harvested. Protein concentration was quantified by BCA Protein Assay Kit (Thermo Fisher Scientific) as per kit protocol. Next, 20 μg of whole-cell lysate was electrophoresed on a 4%–20% gradient polyacrylamide gel with SDS (Bio-Rad, Hercules, CA) and electroblotted onto polyvinylidene difluoride membranes (Bio-Rad). Membranes were blocked in Tris-buffered saline with 5% nonfat milk and 0.1% Tween and probed with antibodies. Bound proteins were detected with horseradish-peroxidase–conjugated secondary antibodies (Cell Signaling Technologies) and SuperSignal West Femto (Thermo Fisher Scientific). […]

MKTQLGAVKGFLHV [HNB] was tested, and the “-TDS” value (recombinant KRAS protein) was -0.7 ± 1.5 kcal/mol, the DH (recombinant KRAS protein) was -4 ± 2 kcal/mol and the “MYC mRNA level” value (MYC) was “significantly reduced MYC expression at the mRNA as well as the protein levels”.
“si.CircPVT1: siRNA targeting the junction sequence of CircPVT1, 5’-UGGGCUUGAGGCCUGAUCUUU-3’ (other strand not given here)” was tested, and the FFX protein expression (FFX) was “significantly reduced the protein”.
